Experimental findings from patent US20110039762A1, “TARGETED ANTIMICROBIAL MOIETIES” (C3 JIAN, INC., priority 2009, published 2011) are described below.

“Also recorded” adds a separate entry of the source.

Experiment [1] has as its system C. jejuni. The experiment can be described thus: Kill or inhibit growth/proliferation; morphology, biofilm and growth disruption (Tables 5, 6). Further: test concentration or dose not given here. It is filed as cell-based, Campylobacter jejuni. More on the design: key: A: Peptide aggregates; B: Less hyphal formation; Clumps; Diffuse clumps and small polyps; F: Diffuse growth; H: Thin; I: Growth inhibition; Microcolony formation; Rippled; Small polyps; Thick; W: Halo formation on top, microlonies on bottom.

Experiment [2] relates to microorganisms. Nature of the experiment: Peptides having multiple activities (targeting/binding, antimicrobial, growth or phenotype altering). The text has this:
In certain embodiments, peptides described herein can have multiple activities. Thus for example, a peptide can have both binding/targeting activity and antimicrobial activity. Such peptides can be used, e.g., in a chimeric construct, for any or all of these properties. Thus, for example, a peptide designated “B” in Table 8 can be used as a targeting peptide. If it is also designated G or M it can also be used for antimicrobial activity.

Experiment [3] concerns B. subtilis. Nature of the experiment: Kill or inhibit growth/proliferation; morphology, biofilm and growth disruption (Tables 5, 6). Further: test concentration or dose not given here. The experiment is classed as cell-based, Bacillus subtilis. More on the design: key: A: Peptide aggregates; B: Less hyphal formation; Clumps; Diffuse clumps and small polyps; F: Diffuse growth; H: Thin; I: Growth inhibition; Microcolony formation; Rippled; Small polyps; Thick; W: Halo formation on top, microlonies on bottom.

The subject of experiment [4] is C. jeikeium. Described as above. The experiment is classed as cell-based, Corynebacterium jeikeium. The arrangement: key: A: Peptide aggregates; B: Less hyphal formation; Clumps; Diffuse clumps and small polyps; F: Diffuse growth; H: Thin; I: Growth inhibition; Microcolony formation; Rippled; Small polyps; Thick; W: Halo formation on top, microlonies on bottom.
Experiment [5] deals with microorganisms (e.g., bacteria, yeasts, fungi). Nature of the experiment: Targeting peptide binding to target microorganisms (Table 3). As to conditions: microorganism(s) the targeting peptide binds, preferably 1x PBS.
In experiment [6] the test system is MRSA. The experiment can be described thus: Kill or inhibit growth/proliferation; morphology, biofilm and growth disruption (Tables 5, 6). Further: test concentration or dose not given here. More on the design: key: A: Peptide aggregates; B: Less hyphal formation; Clumps; Diffuse clumps and small polyps; F: Diffuse growth; H: Thin; I: Growth inhibition; Microcolony formation; Rippled; Small polyps; Thick; W: Halo formation on top, microlonies on bottom. The experiment is classed as cell-based, Methicillin-resistant Staphylococcus aureus.

The test system of experiment [7] is S. epidermidis. The experiment is described as above. It is filed as cell-based, Staphylococcus epidermidis. More on the design: key: A: Peptide aggregates; B: Less hyphal formation; Clumps; Diffuse clumps and small polyps; F: Diffuse growth; H: Thin; I: Growth inhibition; Microcolony formation; Rippled; Small polyps; Thick; W: Halo formation on top, microlonies on bottom.

In experiment [8] the test system is S. pneumoniae. Described as above. It is filed as cell-based, Streptococcus pneumoniae. More on the design: key: A: Peptide aggregates; B: Less hyphal formation; Clumps; Diffuse clumps and small polyps; F: Diffuse growth; H: Thin; I: Growth inhibition; Microcolony formation; Rippled; Small polyps; Thick; W: Halo formation on top, microlonies on bottom. Further: test concentration or dose not given here.
For experiment [9], the system named is M. luteus. The experiment is described as above. The experiment is classed as cell-based, Micrococcus luteus. The arrangement: key: A: Peptide aggregates; B: Less hyphal formation; Clumps; Diffuse clumps and small polyps; F: Diffuse growth; H: Thin; I: Growth inhibition; Microcolony formation; Rippled; Small polyps; Thick; W: Halo formation on top, microlonies on bottom. Further: test concentration or dose not given here.

Where [10] appears, read: peptide binding conducted in aqueous buffers varied by peptide solubility.
Wherever Organism, effect is given: test concentration or dose not given here.

Turning to “PF-564: peptide having multiple activities (chain 1 TIILNDQINSLQERLNKLNAETDRR; chain 2 TIILNDQINSLQERLNKLNAETDRR; Peptide with targeting and/or antimicrobial activity)”, the “Organism, effect” value in [1] is recorded as “C. jejuni (R)”; in experiment [3] it was “B. subtilis (D)”; in experiment [4], “C. jeikeium (R)”; in [6], “MRSA (C)”. Also, the Activities result in [2] is listed as “G B”. Besides, the “Target(s)” value in [5] (setting [10]) is “S. epidermidis; also recorded: C. albicans; also recorded: S. pneumoniae; also recorded: C. jeikeium”.
Take “PF-548: peptide having multiple activities (chain 1 ARPIADLIHFNSTTVTASGDVYYGPG; chain 2 ARPIADLIHFNSTTVTASGDVYYGPG; Peptide with targeting and/or antimicrobial activity)”: the “Organism, effect” value in experiment [7] is recorded as “S. epidermidis (M)”; in experiment [1] it was “C. jejuni (D)”; in experiment [8], “S. pneumoniae (D)”; in experiment [3], “B. subtilis (C)”; in experiment [4], “C. jeikeium (R)”; in experiment [6], “MRSA (M)”. Besides, the “Organism, effect” value in experiment [9] is given as “M. luteus (A)”. Moreover, in experiment [2], the Activities entry is given as “G B”.
Consider “PF-566: peptide having multiple activities (chain 1 EAQQVTQQLGADFNAITTPTATKV; chain 2 EAQQVTQQLGADFNAITTPTATKV; Peptide with targeting and/or antimicrobial activity)”, for which the “Organism, effect” value in [1] is on record as “C. jejuni (D)”; in experiment [8], “S. pneumoniae (D)”; in [3], “B. subtilis (C)”; in [4] it was “C. jeikeium (C)”; in experiment [6], “MRSA (M)”; in experiment [9] it was “M. luteus (D)”. In experiment [2], the Activities entry is “G B”. The “Target(s)” value in [5] (setting [10]) is “P. mirabilis; also recorded: S. pneumoniae”.
Consider “PF-553: peptide having multiple activities (chain 1 LTIVGNALQQKNQKLLLNQKKITSLG; chain 2 LTIVGNALQQKNQKLLLNQKKITSLG; Peptide with targeting and/or antimicrobial activity)”, for which the Activities entry in experiment [2] is “G B”. The “Organism, effect” value in experiment [8] is on record as “S. pneumoniae (R)”; in experiment [3], “B. subtilis (D)”; in [4], “C. jeikeium (R)”; in experiment [6] it was “MRSA (M)”. Moreover, in [5] (setting [10]), the “Target(s)” value was “S. epidermidis and E. coli and P. aeruginosa and C. albicans and MRSA and S. pneumoniae and C. jeikeium”.
“PF-145: peptide having multiple activities (GIVLTGRAGLVSGACSMALGVGLG; Peptide with targeting and/or antimicrobial activity)”: the “Organism, effect” value in [7] is “S. epidermidis (D)”; in [1] it was “C. jejuni (R)”; in [8], “S. pneumoniae (R)”; in experiment [3] it was “B. subtilis (C)”; in [4] it was “C. jeikeium (R)”; in experiment [6], “MRSA (M)”. In addition, the “Organism, effect” value in experiment [9] is reported as “M. luteus (A)”. Also, in [2], the Activities entry is listed as “G B”.
Take “PF-171: peptide having multiple activities (TQVTLCRTW; Peptide with targeting and/or antimicrobial activity)”: the “Organism, effect” value is on record as “S. epidermidis (R)” in experiment [7]; “C. jejuni (R)” in experiment [1]; “S. pneumoniae (D)” in experiment [8]; “B. subtilis (D)” in experiment [3]; “MRSA (M)” in experiment [6]; “M. luteus (R)” in experiment [9]. Moreover, the Activities entry in experiment [2] is recorded as “G B”. Also, the “Target(s)” value in experiment [5] (binding in aqueous buffers depending on peptide solubility) is “S. epidermidis; also recorded: E. coli; also recorded: P. aeruginosa; also recorded: S. pneumoniae”.
